# Laboratory results reported in patent US8697629B2, “Modulation of intracellular signaling” (Angstrom Pharmaceuticals, Inc., priority 2010, dated 2014).
# Legend:
# SKOV3 cells = test: Adhesion of SKOV3 cells to hyaluronic acid; assay type: cell-based; settings: immobilized HA; 1 or 10 uM Å6; 20 ng/ml IM7
# Experimental: (§1) In FIG. 11 SKOV3 cells were cultured overnight with or without 10 μM Å6 or 100 ng/ml PMA. The cells were then detached, washed and loaded with 20 μg/ml CFDA-SE for 30 min at 37° C. After washing, the cells were resuspended in PBS containing 10% FCS and triplicate aliquots representing 100,000 cells incubated for 30 min at room temperature with no additions, 1 or 10 uM Å6 or with 20 ng/ml IM7, a blocking anti-CD44 rat monoclonal antibody. The cells were then placed into microtiter wells that had been coated with 50 μL of 1 mg/mL HA overnight and blocked for 30 min with 10% FCS. The cells were allowed to adhere at room temperature for 30 minutes after which, the wells were decanted and washed 3 times. The fluorescence in each well was assessed (excit./emiss.: 460/536 nm) and the mean fluorescence values (+/standard deviation) of the triplicate determinations calculated.
# A2780 cells = test: Adhesion of A2780 cells to hyaluronic acid; assay type: cell-based; settings: immobilized HA; 1 or 10 μM Å6
# Experimental: as §1, with “12 A2780” for “11 SKOV3”, “μM” for “uM”, “ul” for “μL”, “mg/ml” for “mg/mL”, “min” for “minutes”
# B16 melanoma cells = test: B16 melanoma lung metastasis model; assay type: in vivo, C57BL/6J mice; settings: melanoma cells injected in the tail vein
# Experimental: The B16 melanoma metastasis is well known in the art. A typical protocol for assessing the inhibitory effect of a compound on metastasis is described below. Such a protocol was followed to assess the effect of Å6 on metastasis.
# Briefly, B16 melanoma cells can be cultured in RPMI-1640 with 10% fetal bovine serum at 37° C. in an atmosphere of 95% air and 5% CO2. C57BL/6J mice of six to eight weeks can be purchased from commercial suppliers. For the lung metastasis model, about 1×10^5 melanoma cells suspended in 100 μl saline were injected in the tail vein in the presence or absence of Å6. Administration of the Å6 peptide inhibited the lung metastasis by 50% or more.
# MEK = MEK phosphorylation (S217/221) in SKOV3 cells, immunoblot and densitometry; assay type: cell-based
# Experimental: (§2) Cells were detached from their culture vessels by brief trypsinization, suspended in complete media and centrifuged at 250×g for 10 min at room temperature. The cell pellets were suspended in Dulbeco's phosphate buffered saline (DPBS) and re-centrifuged for a total of three washes. The cells were then re-suspended at 3.33E5/ml in 24 ml of either RPMI containing 0.5% BSA (Sigma Chem. Co. #A0336) (RPMI/BSA) or the conditioned media of growing NIH3T3 fibroblasts (10% FBS in DMEM) supplemented with 10 ng/ml vascular endothelial growth factor (VEGF) (CMN). The cells were then treated with or without 100 ug/ml soluble hyaluronic acid (HA; human umbilical, Calbiochem #385902) for 30 min at 37° C. under 5% CO2. Aliquots representing 2E6 cells were then plated into 10 cm culture dishes and A6 added to yield final concentrations of 0, 10, 100 and 1000 nM. The cells were cultured overnight (18 hr) at 37° C. under 5% CO2.
# (§3) After 18 hr of treatment, the media were aspirated from the 10 cm dishes and saved. The plates were washed 3 times with 4 ml of ice-cold DPBS which were pooled with the reserved non-adherent cells. The non-adherent cells were centrifuged at 250×g for 10 min at 4° C., washed twice with cold DPBS, drained and lysed in 50 ul of cold RIPA buffer (ThermoScientific #89901) containing cocktails of broad spectrum phosphatase inhibitors (Calbiochem #524625; used at 2× final concentration) and protease inhibitors (Sigma #P8340) (RIPA/inh.). The 10 cm dishes were drained of remaining wash and the adherent cells lysed by scraping in 200 μL of cold RIPA/inh. For each test condition, the lysates of the non-adherent and adherent populations were combined, vortexed and then centrifuged at 14,000 rpm at 4° C. for 20 min. Aliquots of the cleared lysates were frozen at −80° C. immediately. A small aliquot was reserved for total protein analysis using a BCA Protein Assay Kit (Calbiochem #71285-3).
# (§4) Samples representing 20 μg of total protein of each lysate were solubilized in the presence of 50 mM Tris pH 6.8, 10% glycerol, 2% SDS and 100 mM DTT for 5 min at 95° C. and then loaded onto 10-20% acrylamide gels (BioRad #345-0044, Tris-HCl, 1 mm, 26 well, 15 μL/well). Electrophoresis was performed using Laemli electrophoresis buffer (0.1% SDS, 25 mM Tris, 192 mM glycine) at 200 V, constant voltage, for one hour. Upon completion of electrophoresis, the proteins were transferred to Immun-Blot PVDF membranes (BioRad #162-0238) in ice-cold 20% methanol in 25 mM Tris, 192 mM glycine for 2 hr at 0.5 Amps, constant current/blotting apparatus. […]
# The integrated densities (id) of the bands of interest were measured using Image J software (NIH). […]
# PKCalpha = PKCalpha phosphorylation in SKOV3 cells, immunoblot; assay type: cell-based
# Experimental: as §2, §3
# as §4, with “apparatus. The membranes were then cut vertically between molecular weight markers and in half at the 64 kDa marker to generate pieces for screening of higher molecular weight proteins (e.g., FAK) and lower molecular weight proteins (e.g., MEK and GAPDH).” for “apparatus.”
substance,measurement,setting,value
acetyl-Lys-Pro-Ser-Ser-Pro-Pro-Glu-Glu-NH2 (Ac-KPSSPPEE-NH2) [Å6],SKOV3 binding to HA,SKOV3 cells,enhanced
same,binding of A2780 cells to HA,A2780 cells,does not substantially modulate
same,inhibition of lung metastasis,B16 melanoma cells,≥ 50%
same,CM/V-increased pMEK/MEK ratios,MEK; CM/V,potentiated this response
same,pMEK/MEK,MEK; under all conditions,enhanced
same,total PKCalpha,PKCalpha; CM/V cultured samples,decreased
same,pPKCa/PKCa,PKCalpha; CM/V in the absence of HA,decreased
same,pPKCa/PKCa,PKCalpha; in the presence of HA,appears to have further enhanced
